The target of experiment [1] is T1, purified human autoBACE-2 (Homo sapiens, UniProt Q9Y5Z0).
T1 sequence (Q9Y5Z0 63-473 limits assumed): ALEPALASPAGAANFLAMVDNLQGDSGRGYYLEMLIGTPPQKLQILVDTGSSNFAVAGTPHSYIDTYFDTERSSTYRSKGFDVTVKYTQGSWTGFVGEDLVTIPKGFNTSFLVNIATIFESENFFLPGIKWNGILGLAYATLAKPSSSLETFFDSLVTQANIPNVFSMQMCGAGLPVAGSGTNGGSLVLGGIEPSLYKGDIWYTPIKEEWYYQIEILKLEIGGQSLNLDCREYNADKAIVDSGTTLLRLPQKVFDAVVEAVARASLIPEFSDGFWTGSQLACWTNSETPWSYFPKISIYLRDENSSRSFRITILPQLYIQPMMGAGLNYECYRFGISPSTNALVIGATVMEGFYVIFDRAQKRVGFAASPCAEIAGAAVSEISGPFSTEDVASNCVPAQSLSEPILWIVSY
The experiment in a line: BACE-2 Assay (BACE-HTRF assay). Format: biochemical. Particulars: Ki calculated from IC50 using the Cheng-Prusoff equation; QSY7-EISEVNLDAEFC-Eu-amide substrate 200 nM, pH 5.0; read-out: BACE2 Ki. How it is done: Inhibitor IC50s at purified human autoBACE-2 are determined in a time-resolved endpoint proteolysis assay that measures hydrolysis of the QSY7-EISEVNLDAEFC-Eu-amide FRET peptide substrate (BACE-HTRF assay). BACE-mediated hydrolysis of this peptide results in an increase in relative fluorescence (RFU) at 620 nm after excitation with 320 nm light. Inhibitor compounds, prepared at 3× the desired final concentration in 1× BACE assay buffer (20 mM sodium acetate pH 5.0, 10% glycerol, 0.1% Brij-35) supplemented with 7.5% DMSO are pre-incubated with an equal volume of autoBACE-2 enzyme diluted in 1× BACE assay buffer (final enzyme concentration 1 nM) in black 384-well NUNC plates for 30 minutes at 30° C. […] DMSO is present at 5% final concentration in the assay. Following laser excitation of sample wells at 320 nm, the fluorescence signal at 620 nm is collected for 400 ms following a 50 μs delay on a RUBYstar HTRF plate reader (BMG Labtechnologies). Raw RFU data is normalized to maximum (1.0 nM BACE/DMSO) and minimum (no enzyme/DMSO) RFU values. IC50s are determined by nonlinear regression analysis (sigmoidal dose response, variable slope) of percent inhibition data with minimum and maximum values set to 0 and 100 percent respectively. Similar IC50s are obtained when using raw RFU data. The Ki values are calculated from the IC50 using the Cheng-Prusoff equation.

In experiment [2] the target is soluble human BACE1 catalytic domain (Homo sapiens, UniProt P56817). Put plainly: BACE1 HTRF FRET Assay. The experiment is classed as biochemical. The conditions noted are these: Ki calculated from IC50 using the Cheng-Prusoff equation; QSY7-APPswe-Eu substrate 200 nM, pH 5.0. The text has this:
Na^+-Acetate pH 5.0; 1% Brij-35; Glycerol; Dimethyl Sulfoxide (DMSO); Recombinant human soluble BACE1 catalytic domain (>95% pure); APP Swedish mutant peptide substrate (QSY7-APP^swe-Eu): QSY7-EISEVNLDAEFC-Europium-amide.
A homogeneous time-resolved FRET assay can be used to determine IC50 values for inhibitors of the soluble human BACE1 catalytic domain. This assay monitors the increase of 620 nm fluorescence that resulted from BACE1 cleavage of an APPswedish APP^swe mutant peptide FRET substrate (QSY7-EISEVNLDAEFC-Europium-amide). This substrate contains an N-terminal QSY7 moiety that serves as a quencher of the C-terminal Europium fluorophore (620 nm Em). In the absence of enzyme activity, 620 nm fluorescence is low in the assay and increased linearly over 3 hours in the presence of uninhibited BACE1 enzyme. Inhibition of BACE1 cleavage of the QSY7-APP^swe-Eu substrate by inhibitors is manifested as a suppression of 620 nm fluorescence.
Varying concentrations of inhibitors at 3× the final desired concentration in a volume of 10 ul are preincubated with purified human BACE1 catalytic domain (3 nM in 10 μl) for 30 minutes at 30° C. in reaction buffer containing 20 mM Na-Acetate pH 5.0, 10% glycerol, 0.1% Brij-35 and 7.5% DSMO. Reactions are initiated by addition of 10 μl of 600 nM QSY7-APP^swe-Eu substrate (200 nM final) to give a final reaction volume of 30 μl in a 384 well Nunc HTRF plate. The reactions are incubated at 30° C. for 1.5 hours. The 620 nm fluorescence is then read on a Rubystar HTRF plate reader (BMG Labtechnologies) using a 50 millisecond delay followed by a 400 millisecond acquisition time window. Inhibitor IC50 values are derived from non-linear regression analysis of concentration response curves. Ki values are then calculated from IC50 values using the Cheng-Prusoff equation using a previously determined […] of 8 μM for the QSY7-APP^swe-Eu substrate at BACE.

soluble human BACE1 catalytic domain, sequence (P56817 75-416 limits assumed): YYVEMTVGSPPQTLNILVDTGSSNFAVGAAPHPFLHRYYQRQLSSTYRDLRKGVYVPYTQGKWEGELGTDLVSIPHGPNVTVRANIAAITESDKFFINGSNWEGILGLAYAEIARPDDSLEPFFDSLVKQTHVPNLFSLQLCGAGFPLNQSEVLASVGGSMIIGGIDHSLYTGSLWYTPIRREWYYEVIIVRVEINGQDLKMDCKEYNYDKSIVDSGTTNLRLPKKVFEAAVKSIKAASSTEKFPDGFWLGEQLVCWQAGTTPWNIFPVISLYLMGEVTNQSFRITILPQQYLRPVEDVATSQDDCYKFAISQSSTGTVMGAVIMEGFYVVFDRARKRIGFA

What is called Ki is a dissociation constant, usually derived from enzyme kinetics or from competition with a known ligand. On to `CN=[S@]1(=O)C[C@@](C)(c2cc(Nc3nccc4cc(OC)cnc34)ccc2F)NC(=N)C1(C)C` [Example 4, (1S,5R)-5-(2-fluoro-5-((3-methoxy-1,7-naphthyridin-8-yl)amino)phenyl)-3-imino-2,2,5-trimethyl-1-(methylimino)-1λ^6-thiomorpholine 1-oxide], for which the Ki is 25 nM in experiment [1] and 28 nM in experiment [2].

For `CN=[S@]1(=O)C[C@@](C)(c2cc(Nc3ccnc4nc(OC)cnc34)ccc2F)NC(=N)C1(C)C` [Example 5, (1S,5R)-5-(2-fluoro-5-((3-methoxypyrido[2,3-b]pyrazin-8-yl)amino)phenyl)-3-imino-2,2,5-trimethyl-1-(methylimino)-1λ^6-thiomorpholine 1-oxide], in experiment [2], the Ki was 1160 nM.

As to `CN=[S@@]1(=O)C[C@@](C)(c2cc(Nc3ncnc4cc(Br)cnc34)ccc2F)NC(=N)C1(C)C` [Example 8, (1R,5R)-5-(5-((7-bromopyrido[3,2-d]pyrimidin-4-yl)amino)-2-fluorophenyl)-3-imino-2,2,5-trimethyl-1-(methylimino)-1λ^6-thiomorpholine 1-oxide], the Ki was 1 nM in experiment [1] and 3 nM in experiment [2].

Regarding `CN=[S@]1(=O)C[C@@](C)(c2cc(Nc3ncnc4cc(Br)cnc34)ccc2F)NC(=N)C1(C)C` [Example 7, (1S,5R)-5-(5-((7-bromopyrido[3,2-d]pyrimidin-4-yl)amino)-2-fluorophenyl)-3-imino-2,2,5-trimethyl-1-(methylimino)-1λ^6-thiomorpholine 1-oxide], the Ki in experiment [2] was 10 nM.

In the case of `CN=[S@@]1(=O)C[C@@](C)(c2cc(Nc3nccc4nc(OC)cnc34)ccc2F)NC(=N)C1(C)C` [Example 1, (1R,5R)-5-(2-fluoro-5-((2-methoxypyrido[3,4-b]pyrazin-5-yl)amino)phenyl)-3-imino-2,2,5-trimethyl-1-(methylimino)-1λ^6-thiomorpholine 1-oxide], the Ki is 16 nM in experiment [1] and 14 nM in experiment [2].

Turning to `CN=[S@]1(=O)C[C@@](C)(c2cc(Nc3ncccc3OC)ccc2F)NC(=N)C1(C)C` [Example 9, (1S,5R)-5-(2-fluoro-5-((3-methoxypyridin-2-yl)amino)phenyl)-3-imino-2,2,5-trimethyl-1-(methylimino)-1λ^6-thiomorpholine 1-oxide], the results for the Ki in experiment [1] and in experiment [2] were 6 nM and 24 nM, respectively.

As to `CN=[S@@]1(=O)C[C@@](C)(c2cc(Nc3ccnc4cc(OC)cnc34)ccc2F)NC(=N)C1(C)C` [Example 2, (1R,5R)-5-(2-fluoro-5-((7-methoxy-1,5-naphthyridin-4-yl)amino)phenyl)-3-imino-2,2,5-trimethyl-1-(methylimino)-1λ^6-thiomorpholine 1-oxide], the figures for the Ki in experiment [1] and in experiment [2] were 75 nM and 98 nM, respectively.

For `CN=[S@]1(=O)C[C@@](C)(c2cc(Nc3nccc4cc(Br)cnc34)ccc2F)NC(=N)C1(C)C` [Example 6, (1S,5R)-5-(5-((3-bromo-1,7-naphthyridin-8-yl)amino)-2-fluorophenyl)-3-imino-2,2,5-trimethyl-1-(methylimino)-1λ^6-thiomorpholine 1-oxide], the Ki is 2 nM in experiment [1] and 4 nM in experiment [2].

These data come from patent US9957269B2, “S-imino-S-oxo iminothiazine compounds as bace inhibitors, compositions, and their use” (Merck Sharp & Dohme Corp., priority 2014, dated 2018).
